The text below walks through data of patent US10329289B2, “6,7-dihydro-5H-pyrrolo[3,4-B]pyridin-5-one allosteric modulators of the M4 muscarinic acetylcholine receptor” (Merck Sharp & Dohme Corp., priority 2015, dated 2019).

Each structure is given as a SMILES string.

This assay deals with T1, human M4 muscarinic acetylcholine receptor (Homo sapiens, UniProt P08173).
T1 construct: expressed in transfected cells; host or cells: CHO-K1
T1 sequence (P08173 1-479): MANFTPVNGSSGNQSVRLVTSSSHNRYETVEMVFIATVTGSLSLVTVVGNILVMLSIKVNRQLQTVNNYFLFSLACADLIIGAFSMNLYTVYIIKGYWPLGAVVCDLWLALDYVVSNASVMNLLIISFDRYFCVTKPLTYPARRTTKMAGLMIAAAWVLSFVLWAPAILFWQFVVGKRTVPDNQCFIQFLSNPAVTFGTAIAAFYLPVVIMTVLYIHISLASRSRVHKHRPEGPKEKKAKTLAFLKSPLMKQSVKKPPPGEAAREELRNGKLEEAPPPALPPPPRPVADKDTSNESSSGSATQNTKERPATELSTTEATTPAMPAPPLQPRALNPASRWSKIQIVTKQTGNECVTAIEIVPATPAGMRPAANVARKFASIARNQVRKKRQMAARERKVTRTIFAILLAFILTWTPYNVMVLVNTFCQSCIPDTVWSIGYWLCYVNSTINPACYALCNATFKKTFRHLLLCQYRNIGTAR
Kind of assay: human FLIPR-based M4 PAM assay (Ca2+ mobilization, CHO-K1 cells with human M4 receptor and Gαqi5). Type of assay: cell-based. To be noted: acetylcholine at 20% of maximum response, read-out: M4 PAM IP. The essentials:
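CHO-K1 cells stably expressing human M4 and chimeric Gαqi5 were dye-loaded ~1 h at 37 °C and read for Ca2+ fluorescence. Compound followed by acetylcholine at an EC20 (sometimes an EC70 third addition); inflection point from a 4-parameter logistic fit.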
A general note: Calcium flux is commonly read through the fluorescence of an indicator in the cells.
In the case of `Cc1cc2c(nc1N1CCC(Oc3ccc4c(c3)C(C)(C)CO4)CC1)CNC2=O` [Example 130, 2-(4-((3,3-dimethyl-2,3-dihydrobenzofuran-5-yl)oxy)piperidin-1-yl)-3-methyl-6,7-dihydro-5H-pyrrolo[3,4-b]pyridin-5-one], the EC50 came out at 105 nM.

As for `Cc1cc2c(nc1N1CCC(Oc3ccc4c(c3)C(=O)N(C3CC3)C4)CC1)CNC2=O` [Example 10, 2-(4-((2-cyclopropyl-3-oxoisoindolin-5-yl)oxy)piperidin-1-yl)-3-methyl-6,7-dihydro-5H-pyrrolo[3,4-b]pyridin-5-one], the EC50 came out at 179 nM.

Turning to `Cc1c(N2CCC(Oc3ccc4c(c3)C[C@H](O)C4)CC2)nc2c(c1C)C(=O)N(CCO)C2` [Example 264D, (R)-2-(4-((2-hydroxy-2,3-dihydro-1H-inden-5-yl)oxy)piperidin-1-yl)-6-(2-hydroxyethyl)-3,4-dimethyl-6,7-dihydro-5H-pyrrolo[3,4-b]pyridin-5-one], the EC50 came out at 79 nM.

Regarding `Cc1cc2c(nc1N1CCC(Oc3ccc4c(c3)C[S+]([O-])C4)CC1)CNC2=O` (single isomer, unassigned) [Example 168A], the EC50 came out at 209 nM.

Regarding `Cc1cc2c(nc1N1CCC(Oc3ccc4c(c3)NCCO4)CC1)CNC2=O` [Example 107, 2-(4-((3,4-dihydro-2H-benzo[b][1,4]oxazin-6-yl)oxy)piperidin-1-yl)-3-methyl-6,7-dihydro-5H-pyrrolo[3,4-b]pyridin-5-one], the EC50 came to 87 nM.

Regarding `COc1ccc(OC2CCN(c3nc4c(cc3C)C(=O)NC4O)CC2)cn1` (centres unmarked) [Example 298, 7-Hydroxy-2-(4-((6-methoxypyridin-3-yl)oxy)piperidin-1-yl)-3-methyl-6,7-dihydro-5H-pyrrolo[3,4-b]pyridin-5-one], the EC50 came out at 24 nM.

Turning to `Cc1c(N2CC[C@H](OCC3(C)CC3)[C@@H](F)C2)nc2c(c1C)C(=O)N(CCO)C2` [Example 266G, 2-((3S,4S)-3-fluoro-4-((1-methylcyclopropyl)methoxy)piperidin-1-yl)-6-(2-hydroxyethyl)-3,4-dimethyl-6,7-dihydro-5H-pyrrolo[3,4-b]pyridin-5-one], the EC50 is 69 nM.

For `Cc1cc2c(nc1N1CCC(OCc3ccccn3)CC1)CNC2=O` [Example 205A, 3-methyl-2-(4-(pyridin-2-ylmethoxy)piperidin-1-yl)-6,7-dihydro-5H-pyrrolo[3,4-b]pyridin-5-one], the EC50 turned out to be 5630 nM.

Turning to `COc1ccc(OC2CCN(c3nc4c(cc3C)C(=O)N(CC(N)=O)C4)CC2)cn1` [Example 310, 2-(2-(4-((6-methoxypyridin-3-yl)oxy)piperidin-1-yl)-3-methyl-5-oxo-5,7-dihydro-6H-pyrrolo[3,4-b]pyridin-6-yl)acetamide], the EC50 is 101 nM.

For the molecule `Cc1ccccc1OC1CCN(c2nc3c(cc2C)C(=O)NC3)CC1` [Example 79, 3-methyl-2-(4-(o-tolyloxy)piperidin-1-yl)-6,7-dihydro-5H-pyrrolo[3,4-b]pyridin-5-one], the EC50 turned out to be 2280 nM.

On to `CCc1cc2c(nc1N1CC[C@@H](Oc3cccnc3)[C@@H](F)C1)CNC2=O` (single isomer, unassigned) [Example 216, 3-ethyl-2-((3R,4S)- or (3S,4R)-3-fluoro-4-(pyridin-3-yloxy)piperidin-1-yl)-6,7-dihydro-5H-pyrrolo[3,4-b]pyridin-5-one], for which the EC50 was found to be 888 nM.

On to `CCc1cc2c(nc1N1CCC(Oc3ccc4c(c3)COCC4)CC1)[C@H](CO)N(C)C2=O` [Example 362, (R)-3-ethyl-7-(hydroxymethyl)-2-(4-(isochroman-7-yloxy)piperidin-1-yl)-6-methyl-6,7-dihydro-5H-pyrrolo[3,4-b]pyridin-5-one], for which the EC50 was found to be 1290 nM.

As for `Cc1cc2c(nc1N1CCC(Oc3cnn(CC4CC4)c3)CC1)CNC2=O` [Example 321A, 2-(4-((1-(cyclopropylmethyl)-1H-pyrazol-4-yl)oxy)piperidin-1-yl)-3-methyl-6,7-dihydro-5H-pyrrolo[3,4-b]pyridin-5-one], the EC50 is 434 nM.

Regarding `COc1ccc(OC2CCN(c3nc4c(c(C)c3C)C(=O)N(C)[C@H]4CO)CC2)cn1` [Example 344A, (R)-7-(hydroxymethyl)-2-(4-((6-methoxypyridin-3-yl)oxy)piperidin-1-yl)-3,4,6-trimethyl-6,7-dihydro-5H-pyrrolo[3,4-b]pyridin-5-one], the EC50 turned out to be 760 nM.
